Values joined by “and” are separate entries in the source; they are usually repeats but may differ in a detail not shown here. Identical values can stand only once.
Test: Testosterone serum level after oromucosal (buccal) administration of testosterone solution, chemiluminescent-immunoassay
Details: for mean increase of the testosterone level per 500 μg T: 30 minutes after buccal administration; for increase per 100 μg T / increase per 500 μg T: buccal solution; for concentration at 30 min: increase of testosterone serum level, 30 minutes post dose, volunteer, baseline 10-15 nmol/L
Protocol: Devices used in the experimental oromucosal application of the solutions of the invention were glass bottles with a spray device from Valois, type VP7, allowing the administration of volumes of 25 μL, 50 μL and 100 μL
Blood samples were taken and analysed for testosterone serum levels using a chemiluminescent-immunoassay (Access Beckman Coulter).
• Testosterone levels were measured 30 minutes after buccal administration of the testosterone solution by a spray pump with a spray volume of 25 μl, 50 μl or 100 μl. • Oromucosal (buccal,sublingual) testosterone solutions administered were in 17 cases a solution in water containing as main constituents testosterone and RAMEB and in 7 cases testosterone in a solution containing as main excipient isopropyl myristate.

[1] = dose 125 μg T, 30 minutes after administration
[2] = dose 300 μg T, 30 minutes after administration
[3] = dose 375 μg T, 30 minutes after administration, separate applications
[4] = dose 400 μg T, 30 minutes after administration, separate applications
[5] = dose 570 μg T, 30 minutes after administration, separate applications
[6] = dose 1000 μg T, 30 minutes after administration
[7] = dose 1150 μg T, 30 minutes after administration
[8] = mean of 24 buccal applications (17 aqueous, 7 non-aqueous), 30 minutes after administration
[9] = oromucosal, general statement in description

In the case of C[C@]12CC[C@H]3[C@@H](CCC4=CC(=O)CC[C@@]43C)[C@@H]1CC[C@@H]2O [testosterone], the “testosterone (T) serum level” value (Volunteer M, sample M3, 10.00 am, aqueous solution 500 μg T at 7.30 am, 375 μg T at 9.30 and 11.30 am) is reported as 25.45 nmol/L, the “testosterone (T) serum level” value (Volunteer M, sample M4, 12.00 am, aqueous solution 500 μg T at 7.30 am, 375 μg T at 9.30 and 11.30 am) is reported as 18.81 nmol/L and the “mean increase of the testosterone level per 500 μg T” value (aqueous formulations (testosterone and RAMEB, ethanol 15% v/v), 17 cases) is reported as 15.2 nmol/L. For the same compound, the “increase per 100 μg T” value [1] was 2.7 nmol/L, the “increase per 500 μg T” value [1] was 14 nmol/L and the “increase per 100 μg T” value [2] was 4.2 nmol/L. The “increase per 500 μg T” value [2] was 21 nmol/L, the “increase per 100 μg T” value [3] was 4.3 nmol/L and 2.4 nmol/L and the “increase per 500 μg T” value [3] was 22 nmol/L and 12 nmol/L. The “increase per 100 μg T” value [4] was 3.0 nmol/L and 2.0 nmol/L, the “increase per 500 μg T” value [4] was 15 nmol/L and 10 nmol/L and the “increase per 100 μg T” value [5] was 4.0 nmol/L and 4.4 nmol/L. The “increase per 500 μg T” value [5] was 20 nmol/L and 22 nmol/L, the “increase per 100 μg T” value [6] was 3.8 nmol/L and the “increase per 500 μg T” value [6] was 19 nmol/L. For the same compound, the “increase per 100 μg T” value [7] was 3.1 nmol/L, the “increase per 500 μg T” value [7] was 16 nmol/L and the concentration at 30 min (human, serum, other: buccal (oromucosal spray), 400 μg, non-aqueous solution, 50 μL=400 μg testosterone buccally) was 18 nM. The concentration at 30 min (human, serum, other: buccal (oromucosal spray), 500 μg, aqueous solution, 100 μL (=500 μg testosterone) buccally) was 20 nM, the concentration at 30 min (human, serum, other: buccal (oromucosal spray), 800 μg, non-aqueous solution, 100 μL=800 μg testosterone buccally) was 36 nM and the concentration at 30 min (human, serum, other: buccal (oromucosal spray), 1000 μg, aqueous solution, 2×100 μL (=1000 μg testosterone) buccally) was 38 nM. It also gave a concentration at 0 h (human, serum, other: buccal (oromucosal spray), testosterone (T) serum level, Volunteer D, sample D1, 7.30 am (time of first dose), aqueous solution 500 μg T at 7.30, 9.30, 11.30 am) of 11.9 nM, a concentration at 0.5 h (human, serum, other: buccal (oromucosal) solution, spray, 500 μg, testosterone (T) serum level, Volunteer D, sample D2, 8.00 am, aqueous solution 500 μg T at 7.30, 9.30, 11.30 am) of 18.6 nM and a concentration at 2.5 h (human, serum, other: buccal (oromucosal) solution, spray, 500 μg, testosterone (T) serum level, Volunteer D, sample D3, 10.00 am, aqueous solution 500 μg T at 7.30, 9.30, 11.30 am) of 28.1 nM. It also gave a concentration at […] (human, serum, other: buccal (oromucosal) solution, spray, 500 μg, testosterone (T) serum level, Volunteer D, sample D4, 12.00 am, aqueous solution 500 μg T at 7.30, 9.30, 11.30 am) of 28.7 nM, a concentration at 0 h (human, serum, other: buccal (oromucosal) solution, spray, 500 μg, testosterone (T) serum level, Volunteer M, sample M1, 7.30 am (time of first dose), aqueous solution 500 μg T at 7.30 am, 375 μg T at 9.30 and 11.30 am) of 8.72 nM and a concentration at 0.5 h (human, serum, other: buccal (oromucosal) solution, spray, 500 μg, testosterone (T) serum level, Volunteer M, sample M2, 8.00 am, aqueous solution 500 μg T at 7.30 am, 375 μg T at 9.30 and 11.30 am) of 25.5 nM. The “mean (SD) increase per 100 μg T” value [8] was 3.1 nmol/L and 3.1(0.9) nmol/L, the “mean (SD) increase per 500 μg T” value [8] was 15.7 nmol/L and 15.7(4.6) nmol/L and the “mean increase of the testosterone level per 500 μg T” value (non-aqueous formulations (isopropyl myristate, ethanol 15% v/v), 7 cases) was 16.7 nmol/L. For the same compound, the “mean increase in testosterone serum level for each 0.1 mg testosterone dose administered” value [9] was “about 3 nmol/L” and the “mean increase in testosterone serum level for each 0.5 mg testosterone dose administered” value [9] was “about 15 nmol/L”.
